Literature values as cited in patent publication US20060104997A1, “Monoterpene compositions and uses thereof” (priority 2001, published 2006).

Tested on: advanced N-methyl-N-nitrosourea-induced rat mammary carcinoma

In the case of `C=C(C)C1CC=C(CO)CC1` (stereo not shown) [perillyl alcohol, 1-hydroxymethyl-4-isopropenyl-1-cyclohexene], the “activity relative to limonene” value is listed as “approximately 5 fold”.
